From US8962853B2, “Chemical probe compounds that become fluorescent upon reduction, and methods for their use” (Life Technologies Corporation, priority 2005, dated 2015)

What was measured:
S. aureus [1] = test: Electron transport system (ETS) inhibition assay; assay type: cell-based, Staphylococcus aureus; details: for fluorescence signal of stain, S. aureus: no ETS inhibitor (Untreated)
Experimental: (§1) S. aureus and E. coli were treated with known inhibitors of the electron transport system (ETS) to determine if reductase moieties in the ETS would reduce exemplary stain compounds. […] The bacteria were diluted in PBS buffer and treated with the various ETS inhibitors, stained with 500 nM stain compound (18) for 10 minutes, and then analyzed by flow cytometry using a Becton Dickinson FACSCalibur™ instrument (Becton, Dickinson and Company; Franklin Lakes, N.J.) containing a 488 nm argon ion laser.
(§2) Stain compound (19) was assayed according to the procedure outlined in Example 23.
(§3) Stain compound (22) was assayed according to the procedure outlined in Example 23.
(§4) Stain compound (24) was assayed according to the procedure outlined in Example 23.

E. coli [2] = test: Electron transport system (ETS) inhibition assay; assay type: cell-based, Escherichia coli; details: for fluorescence signal of stain, E. coli: no ETS inhibitor (Untreated)
Experimental: as §1, §2, §3, §4

B. subtilis [3] = test: Titration series on cultured bacteria; assay type: cell-based, Bacillus subtilis; details: titration 10 nM to 1 uM
Experimental: (§5) The x-axis represents the concentration of compound (18) in nM, while the y-axis represents FL1 GeoMean fluorescence.
(§6) A titration series was performed on cultured bacteria. Chemical compound (18) was used at concentrations ranging from 10 nM to 1 uM for S. aureus and B. subtilis (FIG. 2), and 500 nM to 4 uM for E. coli and K. pneumoniae (FIG. 3).

K. pneumoniae [4] = test: Staining of bacteria, flow cytometry; assay type: cell-based, Klebsiella pneumoniae; details: 500 nM, 10 minutes
Experimental: (§7) Gram-positive and Gram-negative bacteria were labeled using compound (18). S. aureus and B. subtilis were used as examples of Gram-positive bacteria, and E. coli and K. pneumoniae were used as examples of Gram-negative bacteria. Cells were diluted in buffer to about 10^6 cells/mL. The bacteria were contacted with compound 18 (500 nM) for 10 minutes in Hank's Balanced Salt Solution (HBSS) or various other buffers such as PBS. The samples were analyzed by flow cytometry using a Becton Dickinson FACScan™ instrument (Becton, Dickinson and Company; Franklin Lakes, N.J.) containing a 488 nm argon ion laser. Cells were analyzed directly without washing, or optionally, were fixed with 1-4% formaldehyde prior to flow cytometric analysis.

S. aureus [5] = test: Fixation assays (compatibility with fixed samples); assay type: cell-based, Staphylococcus aureus; details: 100 nM, 10 minutes, HBSS
Experimental: A culture of S. aureus was grown to log-phase, and washed and diluted in HBSS to 10^6 cells per mL. Samples of 1 mL each were aliquotted to six flow cytometry tubes. CCCP was added to three of the samples at a final concentration of 10 μM. The samples were incubated for 1-5 minutes. Compound (18) was added at a final concentration of 100 nM, and the samples were allowed to sit for 10 minutes. The +/− CCCP tubes were divided into two sets: one set received 1 mL of 100% ethanol, and the other set received 100 µL of 10% formaldehyde (methanol-free). The samples were analyzed using a Becton Dickinson FACSCalibur as described in Example 23.

K. pneumoniae [6] = test: Titration series on cultured bacteria; assay type: cell-based, Klebsiella pneumoniae; details: titration 500 nM to 4 uM; Gram-negative organisms tested
Experimental: as §5, §6

B. subtilis [7] = test: Stability of fluorescence; assay type: cell-based, Bacillus subtilis; details: monitored for one hour
Experimental: (§8) Compound (18) was contacted with cultures of S. aureus, B. subtilis, E. coli, and K. pneumoniae. The fluorescence of the samples were monitored for one hour. The signal developed very quickly for S. aureus and B. subtilis, and stabilized within 10 minutes. The signal was stable for at least one hour (FIG. 6).

E. coli [8] = test: Staining of bacteria, flow cytometry; assay type: cell-based, Escherichia coli; details: 500 nM, 10 minutes
Experimental: as §7

S. aureus [9] = test: Titration series on cultured bacteria; assay type: cell-based, Staphylococcus aureus; details: titration 10 nM to 1 uM
Experimental: as §5, §6

E. coli [10] = test: Titration series on cultured bacteria; assay type: cell-based, Escherichia coli; details: titration 500 nM to 4 uM; Gram-negative organisms tested
Experimental: as §5, §6

S. aureus [11] = test: Stability of fluorescence; assay type: cell-based, Staphylococcus aureus; details: monitored for one hour
Experimental: as §8

S. aureus [12] = test: Staining of bacteria, flow cytometry; assay type: cell-based, Staphylococcus aureus; details: 500 nM, 10 minutes
Experimental: as §7

B. subtilis [13] = test: Staining of bacteria, flow cytometry; assay type: cell-based, Bacillus subtilis; details: 500 nM, 10 minutes
Experimental: as §7

S. aureus [14] = test: Time course treatments (growth and stain fluorescence); assay type: cell-based, Staphylococcus aureus; details: compound present in broth culture medium
Experimental: Control samples that were untreated were also prepared.
Samples were taken once every hour for six hours and stained with 500 nM compound (18) for 10 minutes, then analyzed by flow cytometry using a Becton Dickinson FACSCalibur™ instrument (Becton, Dickinson and Company; Franklin Lakes, N.J.) containing a 488 nm argon ion laser. Not only did the treated cells not proliferate, but the signal from the stain in treated samples decreased once the cells entered ‘log-growth’ phase as compared to the untreated control.

[15] = stained with compound (18) 500 nM, rotenone 1 mM, antimycin A 20 uM, azide 10 mM, CCCP 10 uM
[16] = stain compound (18) 500 nM, 10 minutes, PBS
[17] = buffer Sodium chloride + 10 mM glucose

**Q.** What does the source list for C=C(C)[C@H]1Cc2c(ccc3c2O[C@@H]2COc4cc(OC)c(OC)cc4[C@@H]2C3=O)O1 [Rotenone, rotenone]?
**A.** fluorescence signal after inhibitor treatment, S. aureus (S. aureus [1]; [15]): 32.75; fluorescence signal after inhibitor treatment, S. aureus (S. aureus [1]; stained with compound (19)): 8.19; fluorescence signal after inhibitor treatment, S. aureus (S. aureus [1]; stained with compound (22)): 11.74; fluorescence signal after inhibitor treatment, S. aureus (S. aureus [1]; stained with compound (24)): 17.17; fluorescence signal after inhibitor treatment, E. coli (E. coli [2]; [15]): 24.05; fluorescence signal after inhibitor treatment, E. coli (E. coli [2]; stained with compound (19)): 20.56; fluorescence signal after inhibitor treatment, E. coli (E. coli [2]; stained with compound (22)): 38.81; fluorescence signal after inhibitor treatment, E. coli (E. coli [2]; stained with compound (24)): 44.66

**Q.** What does the source list for N#CC(C#N)=NNc1cccc(Cl)c1 [CCCP, carbonyl cyanide m-chlorophenylhydrazone]?
**A.** fluorescence signal after inhibitor treatment, S. aureus (S. aureus [1]; [15]): 4.19; fluorescence signal after inhibitor treatment, S. aureus (S. aureus [1]; stained with compound (19)): 46.73; fluorescence signal after inhibitor treatment, S. aureus (S. aureus [1]; stained with compound (22)): 240.61; fluorescence signal after inhibitor treatment, S. aureus (S. aureus [1]; stained with compound (24)): 402.19; fluorescence signal after inhibitor treatment, E. coli (E. coli [2]; [15]): 150.7; fluorescence signal after inhibitor treatment, E. coli (E. coli [2]; stained with compound (19)): 12.59; fluorescence signal after inhibitor treatment, E. coli (E. coli [2]; stained with compound (22)): 63.26; fluorescence signal after inhibitor treatment, E. coli (E. coli [2]; stained with compound (24)): 152.7

**Q.** Which results are given for CC1=C(C)C(=O)C(N2CCC(NC(=O)CCCN(C)C3=C/C(=C\c4sc5ccccc5[n+]4C)c4ccccc4N3c3ccccc3)CC2)=C(C)C1=O [Compound 18]?
**A.** optimal concentration for staining (B. subtilis [3]): about 500 nM; fluorescence signal of stain, S. aureus (S. aureus [1]; [16]): 351.91; FL1 GeoMean fluorescence (K. pneumoniae [4]; buffer HBSS): 19.9; FL1 GeoMean fluorescence (K. pneumoniae [4]; buffer PBS + 1 mM EDTA): 48.67; FL1 GeoMean fluorescence (K. pneumoniae [4]; buffer PBS + 0.01% Tween-20): 29; FL1 GeoMean fluorescence (K. pneumoniae [4]; buffer PBS + 0.1% Pluronic): 78.1; FL1 GeoMean fluorescence (K. pneumoniae [4]; buffer PBS): 17.91; FL1 GeoMean fluorescence (K. pneumoniae [4]; [17]): 9.7; FL1 GeoMean fluorescence (K. pneumoniae [4]; buffer Sodium chloride): 9.16; Fluorescence (S. aureus [5]; CCCP No, Fixation agent Ethanol): 135; Fluorescence (S. aureus [5]; CCCP No, Fixation agent Formaldehyde): 936; Fluorescence (S. aureus [5]; CCCP No, Fixation agent None): 1720; Fluorescence (S. aureus [5]; CCCP Yes (10 μM), Fixation agent Ethanol): 53; Fluorescence (S. aureus [5]; CCCP Yes (10 μM), Fixation agent Formaldehyde): 274; Fluorescence (S. aureus [5]; CCCP Yes (10 μM), Fixation agent None): 110; fluorescence signal of stain, E. coli (E. coli [2]; [16]): 85.33; preferred concentration for staining (K. pneumoniae [6]): about 1 uM; time for fluorescence signal to stabilize (B. subtilis [7]): ≤ 10 min; time the fluorescence signal was stable (B. subtilis [7]): at least one; FL1 GeoMean fluorescence (E. coli [8]; buffer HBSS): 42.1; FL1 GeoMean fluorescence (E. coli [8]; buffer PBS + 1 mM EDTA): 70.92; FL1 GeoMean fluorescence (E. coli [8]; buffer PBS + 0.01% Tween-20): 44.48; FL1 GeoMean fluorescence (E. coli [8]; buffer PBS + 0.1% Pluronic): 136.43; FL1 GeoMean fluorescence (E. coli [8]; buffer PBS): 30.25; FL1 GeoMean fluorescence (E. coli [8]; [17]): 11.52; FL1 GeoMean fluorescence (E. coli [8]; buffer Sodium chloride): 12.43; concentration found to work well for staining (S. aureus [9]): 50 to 100 nM; preferred concentration for staining (E. coli [10]): about 1 uM; time for fluorescence signal to stabilize (S. aureus [11]): ≤ 10 min; time the fluorescence signal was stable (S. aureus [11]): at least one; FL1 GeoMean fluorescence (S. aureus [12]; buffer HBSS): 2168.52; FL1 GeoMean fluorescence (S. aureus [12]; buffer PBS + 1 mM EDTA): 1583.19; FL1 GeoMean fluorescence (S. aureus [12]; buffer PBS + 0.01% Tween-20): 2909.97; FL1 GeoMean fluorescence (S. aureus [12]; buffer PBS + 0.1% Pluronic): 1685.21; FL1 GeoMean fluorescence (S. aureus [12]; buffer PBS): 1976.41; FL1 GeoMean fluorescence (S. aureus [12]; [17]): 2183.44; FL1 GeoMean fluorescence (S. aureus [12]; buffer Sodium chloride): 2171.61; FL1 GeoMean fluorescence (B. subtilis [13]; buffer HBSS): 902.22; FL1 GeoMean fluorescence (B. subtilis [13]; buffer PBS + 1 mM EDTA): 57.75; FL1 GeoMean fluorescence (B. subtilis [13]; buffer PBS + 0.01% Tween-20): 844.66; FL1 GeoMean fluorescence (B. subtilis [13]; buffer PBS + 0.1% Pluronic): 470.35; FL1 GeoMean fluorescence (B. subtilis [13]; buffer PBS): 902.15; FL1 GeoMean fluorescence (B. subtilis [13]; [17]): 943.79; FL1 GeoMean fluorescence (B. subtilis [13]; buffer Sodium chloride): 951.93; proliferation of S. aureus (S. aureus [14]): prevented proliferation

**Q.** Which results are given for CC1=C(C)C(=O)C(N2CCN(C(=O)CCCN(C)C3=C/C(=C\c4sc5ccccc5[n+]4C)C=CN3c3ccccc3)CC2)=C(C)C1=O [Compound 19]?
**A.** fluorescence signal of stain, S. aureus (S. aureus [1]; stain compound (19)): 248.1; fluorescence signal of stain, E. coli (E. coli [2]; stain compound (19)): 59.78

**Q.** For antimycin A, which “fluorescence signal after inhibitor treatment, S. aureus” value (S. aureus [1]; [15]) is on record?
**A.** The value was 59.41.

**Q.** And the “fluorescence signal after inhibitor treatment, S. aureus” value (S. aureus [1]; stained with compound (19))?
**A.** The value was 4.1.

**Q.** And the “fluorescence signal after inhibitor treatment, S. aureus” value (S. aureus [1]; stained with compound (22))?
**A.** Its value is 6.16.

**Q.** What about the “fluorescence signal after inhibitor treatment, S. aureus” value (S. aureus [1]; stained with compound (24)) of the same compound?
**A.** The value was 6.56.

**Q.** And the “fluorescence signal after inhibitor treatment, E. coli” value (E. coli [2]; [15])?
**A.** Its value is 34.65.

**Q.** And the “fluorescence signal after inhibitor treatment, E. coli” value (E. coli [2]; stained with compound (19))?
**A.** Its value is 12.4.

**Q.** And the “fluorescence signal after inhibitor treatment, E. coli” value (E. coli [2]; stained with compound (22))?
**A.** Its value is 20.17.

**Q.** And the “fluorescence signal after inhibitor treatment, E. coli” value (E. coli [2]; stained with compound (24))?
**A.** The value was 26.28.

**Q.** CC1=C(C)C(=O)C(N(C)CCCN(C)C2=C/C(=C\c3sc4ccccc4[n+]3C)c3ccccc3N2c2ccccc2)=C(C)C1=O [Compound 24] was tested. Which “fluorescence signal of stain, S. aureus” value (S. aureus [1]; stain compound (24)) did it give?
**A.** The value was 853.47.

**Q.** What about the “fluorescence signal of stain, E. coli” value (E. coli [2]; stain compound (24)) of the same compound?
**A.** Its value is 114.71.

**Q.** Which results are given for CC1=C(NCCCN(C)C2=C/C(=C\c3sc4ccccc4[n+]3C)c3ccccc3N2c2ccccc2)C(=O)c2ccccc2C1=O [Compound 22]?
**A.** fluorescence signal of stain, S. aureus (S. aureus [1]; stain compound (22)): 594.12; fluorescence signal of stain, E. coli (E. coli [2]; stain compound (22)): 90.91
